Measured values taken from patent US9149476B2, “Thiochromene derivatives as HIF hydroxylase inhibitors” (FibroGen, Inc., priority 2008, dated 2015).
Structures can show the parent of a compound that is named as a salt.

Molecular target: T1, HIF-PH2 (EGLN1) (Homo sapiens, UniProt Q9GZT9)
T1 construct: made in house; host or cells: insect Hi5 cells
Assay: HIF-PH assay (14CO2 capture, peptide-dependent turnover)
Assay type: biochemical
Settings: for inhibition at 50 µM: compound concentration 50 μM; for inhibition at 200 µM: compound concentration 200 μM; for inhibition at 12.5 µM: compound concentration 12.5 μM; for inhibition at 67 µM: compound concentration 67 μM
Source text: Ketoglutaric acid α-[1-^14C]-sodium salt, alpha-ketoglutaric acid sodium salt, and HPLC purified peptide may be obtained from commercial sources, e.g., Perkin-Elmer (Wellesley Mass.), Sigma-Aldrich, and SynPep Corp. (Dublin Calif.), respectively. Peptides for use in the assay may be fragments of HIFα as described above or as disclosed in International Publication WO 2005/118836, incorporated by reference herein. For example, a HIF peptide for use in the HIF-PH assay is [methoxycoumarin]-DLDLEALAPYIPADDDFQL-amide (SEQ ID NO:2). HIF-PH, e.g., HIF-PH2 (EGLN1), can be expressed in, e.g., insect Hi5 cells, and partially purified, e.g., through a SP ion exchange chromatography column. Enzyme activity is determined by capturing ^14CO2 using an assay described by Kivirikko and Myllyla (1982, Methods Enzymol. 82:245-304). Assay reactions contain 50 mM HEPES (pH 7.4), 100 μM α-ketoglutaric acid sodium salt, 0.30 μCi/mL ketoglutaric acid α-[1-^14C]-sodium salt, 40 μM FeSO4, 1 mM ascorbate, 1541.8 units/mL Catalase, with or without 50 μM peptide substrate and various concentrations of compound of the invention. Reactions are initiated by addition of HIF-PH enzyme.
The peptide-dependent percent turnover is calculated by subtracting percent turnover in the absence of peptide from percent turnover in the presence of substrate peptide. Percent inhibition and IC50 are calculated using peptide-dependent percent turnover at given inhibitor concentrations. Calculation of IC50 values for each inhibitor is conducted using GraFit software (Erithacus Software Ltd., Surrey UK).
Representative compounds of the invention were analyzed using the HIF-PH assay described above. Table 1 presents enzyme inhibition data for exemplary compounds against HIF-PH2, a representative HIF prolyl hydroxylase. By inhibiting HIF prolyl hydroxylase, compounds of the invention stabilize HIFα, which then combines with HIFβ to form an active transcription factor that increases expression of various genes involved in numerous beneficial cellular processes.

T1 sequence (Q9GZT9 whole entry): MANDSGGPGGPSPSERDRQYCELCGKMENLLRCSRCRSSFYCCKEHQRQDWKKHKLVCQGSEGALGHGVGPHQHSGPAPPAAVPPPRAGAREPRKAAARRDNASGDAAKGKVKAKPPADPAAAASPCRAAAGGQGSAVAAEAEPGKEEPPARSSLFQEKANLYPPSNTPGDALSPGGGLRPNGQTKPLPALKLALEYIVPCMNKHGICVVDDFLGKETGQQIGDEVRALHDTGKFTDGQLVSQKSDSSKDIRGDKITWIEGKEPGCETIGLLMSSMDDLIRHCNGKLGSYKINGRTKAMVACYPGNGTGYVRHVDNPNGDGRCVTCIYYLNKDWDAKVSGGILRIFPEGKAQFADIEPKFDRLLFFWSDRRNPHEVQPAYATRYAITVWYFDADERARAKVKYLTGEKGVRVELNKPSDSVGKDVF

## COc1ccc2c(O)c(C(=O)NCC(=O)O)c(=O)sc2c1 [Example 1, [(4-Hydroxy-7-methoxy-2-oxo-2H-thiochromene-3-carbonyl)-amino]-acetic acid]
  inhibition at 50 µM: 97.3%

## COc1cc2sc(=O)c(C(=O)NCC(=O)O)c(O)c2cc1OC [Example 2, [(4-Hydroxy-6,7-dimethoxy-2-oxo-2H-thiochromene-3-carbonyl)-amino]-acetic acid]
  inhibition at 200 µM: 99.4%

## O=C(O)CNC(=O)c1c(O)c2ccccc2sc1=O [Example 3, [(4-Hydroxy-2-oxo-2H-thiochromene-3-carbonyl)-amino]-acetic acid]
  inhibition at 200 µM: 99.2%

## O=C(O)CNC(=O)c1c(O)c2cc(F)ccc2sc1=O [Example 4, [(6-Fluoro-4-hydroxy-2-oxo-2H-thiochromene-3-carbonyl)-amino]-acetic acid]
  inhibition at 200 µM: 100%

## O=C(O)CNC(=O)c1c(O)c2ccc(Br)cc2sc1=O [Example 5, [(7-bromo-4-hydroxy-2-oxo-2H-thiochromene-3-carbonyl)-amino]-acetic acid]
  inhibition at 12.5 µM: 97.6%

## Cc1ccc2c(O)c(C(=O)NCC(=O)O)c(=O)sc2c1 [Example 6, [(4-Hydroxy-7-methyl-2-oxo-2H-thiochromene-3-carbonyl)-amino]-acetic acid]
  inhibition at 12.5 µM: 94.5%

## COc1ccc(-c2ccc3c(O)c(C(=O)NCC(=O)O)c(=O)sc3c2)cc1 [Example 7, {[4-Hydroxy-7-(4-methoxy-phenyl)-2-oxo-2H-thiochromene-3-carbonyl]-amino}-acetic acid]
  inhibition at 12.5 µM: 98.7%

## COc1cccc(-c2ccc3c(O)c(C(=O)NCC(=O)O)c(=O)sc3c2)c1 [Example 8, {[4-Hydroxy-7-(3-methoxy-phenyl)-2-oxo-2H-thiochromene-3-carbonyl]-amino}-acetic acid]
  inhibition at 50 µM: 97.5%

## COc1ccccc1-c1ccc2c(O)c(C(=O)NCC(=O)O)c(=O)sc2c1 [Example 9, {[4-Hydroxy-7-(2-methoxy-phenyl)-2-oxo-2H-thiochromene-3-carbonyl]-amino}-acetic acid]
  inhibition at 50 µM: 97.2%

## O=C(O)CNC(=O)c1c(O)c2ccc(-c3cc(Cl)cc(Cl)c3)cc2sc1=O [Example 10, {[7-(3,5-Dichloro-phenyl)-4-hydroxy-2-oxo-2H-thiochromene-3-carbonyl]-amino}-acetic acid]
  inhibition at 50 µM: 96.7%

## O=C(O)CNC(=O)c1c(O)c2ccc(-c3ccc(C(F)(F)F)cc3)cc2sc1=O [Example 11, {[4-Hydroxy-2-oxo-7-(4-trifluoromethyl-phenyl)-2H-thiochromene-3-carbonyl]-amino}-acetic acid]
  inhibition at 50 µM: 95.8%

## O=C(O)CNC(=O)c1c(O)c2ccc(-c3ccccc3)cc2sc1=O [Example 12, [(4-Hydroxy-2-oxo-7-phenyl-2H-thiochromene-3-carbonyl)-amino]-acetic acid]
  inhibition at 50 µM: 96.8%

## O=C(O)CNC(=O)c1c(O)c2ccc(-c3ccc(F)cc3)cc2sc1=O [Example 13, {[7-(4-Fluoro-phenyl)-4-hydroxy-2-oxo-2H-thiochromene-3-carbonyl]-amino}-acetic acid]
  inhibition at 50 µM: 99.7%

## O=C(O)CNC(=O)c1c(O)c2ccc(-c3cncnc3)cc2sc1=O [Example 14, [(4-Hydroxy-2-oxo-7-pyrimidin-5-yl-2H-thiochromene-3-carbonyl)-amino]-acetic acid]
  inhibition at 50 µM: 99.5%

## O=C(O)CNC(=O)c1c(O)c2ccc(-c3cccnc3)cc2sc1=O [Example 15, [(4-Hydroxy-2-oxo-7-pyridin-3-yl-2H-thiochromene-3-carbonyl)-amino]-acetic acid, sodium salt]
  inhibition at 50 µM: 95.2%

## O=C(O)CNC(=O)c1c(O)c2ccc(-c3cncc(F)c3)cc2sc1=O [Example 16, {[7-(5-Fluoro-pyridin-3-yl)-4-hydroxy-2-oxo-2H-thiochromene-3-carbonyl]-amino}-acetic acid]
  inhibition at 50 µM: 95.4%

## O=C(O)CNC(=O)c1c(O)c2ccc(-c3ccc(F)c(Cl)c3)cc2sc1=O [Example 17, {[7-(3-Chloro-4-fluoro-phenyl)-4-hydroxy-2-oxo-2H-thiochromene-3-carbonyl]-amino}-acetic acid]
  inhibition at 50 µM: 92.8%

## O=C(O)CNC(=O)c1c(O)c2ccc(-c3ccc4ccccc4c3)cc2sc1=O [Example 18, [(4-Hydroxy-7-naphthalen-2-yl-2-oxo-2H-thiochromene-3-carbonyl)-amino]-acetic acid]
  inhibition at 50 µM: 87.9%

## Cc1ccc(-c2ccc3c(O)c(C(=O)NCC(=O)O)c(=O)sc3c2)cc1 [Example 19, [(4-Hydroxy-2-oxo-7-p-tolyl-2H-thiochromene-3-carbonyl)-amino]-acetic acid]
  inhibition at 50 µM: 92.1%

## O=C(O)CNC(=O)c1c(O)c2ccc(F)cc2sc1=O [Example 21, [(7-Fluoro-4-hydroxy-2-oxo-2H-thiochromene-3-carbonyl)-amino]-acetic acid]
  inhibition at 12.5 µM: 91.1%

## Cc1cc(Cl)cc2c(O)c(C(=O)NCC(=O)O)c(=O)sc12 [Example 22, [(6-Chloro-4-hydroxy-8-methyl-2-oxo-2H-thiochromene-3-carbonyl)-amino]-acetic acid]
  inhibition at 50 µM: 95.6%

## Cc1cccc2c(O)c(C(=O)NCC(=O)O)c(=O)sc12 [Example 23, [(4-Hydroxy-8-methyl-2-oxo-2H-thiochromene-3-carbonyl)-amino]-acetic acid]
  inhibition at 50 µM: 97.5%

## CCCCOc1ccc2c(O)c(C(=O)NCC(=O)O)c(=O)sc2c1 [Example 26, [(7-Butoxy-4-hydroxy-2-oxo-2H-thiochromene-3-carbonyl)-amino]-acetic acid]
  inhibition at 12.5 µM: 96.2%

## O=C(O)CNC(=O)c1c(O)c2cc(Br)ccc2sc1=O [Example 27, [(6-Bromo-4-hydroxy-2-oxo-2H-thiochromene-3-carbonyl)-amino]-acetic acid]
  inhibition at 67 µM: 100%

## C[C@H](NC(=O)c1c(O)c2cc(Br)ccc2sc1=O)C(=O)O [Example 28, 2-(S)-[(6-Bromo-4-hydroxy-2-oxo-2H-thiochromene-3-carbonyl)-amino]-propionic acid]
  inhibition at 67 µM: 98%

## O=C(O)CNC(=O)c1c(O)c2ccc(-c3cc(C(F)(F)F)cc(C(F)(F)F)c3)cc2sc1=O [Example 29, {[7-(3,5-Bis-trifluoromethyl-phenyl)-4-hydroxy-2-oxo-2H-thiochromene-3-carbonyl]-amino}-acetic acid]
  inhibition at 67 µM: 96.4%

## O=C(O)CNC(=O)c1c(O)c2ccc(-c3cccc(F)c3)cc2sc1=O [Example 30, {[7-(3-Fluoro-phenyl)-4-hydroxy-2-oxo-2H-thiochromene-3-carbonyl]-amino}-acetic acid]
  inhibition at 67 µM: 99.1%

## C[C@H](NC(=O)c1c(O)c2ccc(-c3cccc(F)c3)cc2sc1=O)C(=O)O [Example 31, 2-(S)-{[7-(3-Fluoro-phenyl)-4-hydroxy-2-oxo-2H-thiochromene-3-carbonyl]-amino}-propionic acid]
  inhibition at 67 µM: 98.4%

## O=C(O)CNC(=O)c1c(O)c2ccc(-c3ccccc3C(F)(F)F)cc2sc1=O [Example 32, {[4-Hydroxy-2-oxo-7-(2-trifluoromethyl-phenyl)-2H-thiochromene-3-carbonyl]-amino}-acetic acid]
  inhibition at 67 µM: 93.2%

## O=C(O)CNC(=O)c1c(O)c2cc(-c3cc(C(F)(F)F)cc(C(F)(F)F)c3)ccc2sc1=O [Example 33, {[6-(3,5-Bis-trifluoromethyl-phenyl)-4-hydroxy-2-oxo-2H-thiochromene-3-carbonyl]-amino}-acetic acid]
  inhibition at 67 µM: 99.4%

## O=C(O)CNC(=O)c1c(O)c2cc(-c3ccccc3C(F)(F)F)ccc2sc1=O [Example 34, {[4-Hydroxy-2-oxo-6-(2-trifluoromethyl-phenyl)-2H-thiochromene-3-carbonyl]-amino}-acetic acid]
  inhibition at 67 µM: 99.8%

## COc1ccc(-c2ccc3sc(=O)c(C(=O)NCC(=O)O)c(O)c3c2)cc1 [Example 35, {[4-Hydroxy-6-(4-methoxy-phenyl)-2-oxo-2H-thiochromene-3-carbonyl]-amino}-acetic acid]
  inhibition at 67 µM: 99.1%

## O=C(O)CNC(=O)c1c(O)c2cc(-c3ccccc3Cl)ccc2sc1=O [Example 36, {[6-(2-Chloro-phenyl)-4-hydroxy-2-oxo-2H-thiochromene-3-carbonyl]-amino}-acetic acid]
  inhibition at 67 µM: 99.7%

## O=C(O)CNC(=O)c1c(O)c2cc(-c3cccc(F)c3)ccc2sc1=O [Example 37, {[6-(3-Fluoro-phenyl)-4-hydroxy-2-oxo-2H-thiochromene-3-carbonyl]-amino}-acetic acid]
  inhibition at 67 µM: 98.4%

## O=C(O)CNC(=O)c1c(O)c2cc(-c3ccc(F)cc3)ccc2sc1=O [Example 38, {[6-(4-Fluoro-phenyl)-4-hydroxy-2-oxo-2H-thiochromene-3-carbonyl]-amino}-acetic acid]
  inhibition at 67 µM: 96.6%

## COc1ccccc1-c1ccc2sc(=O)c(C(=O)NCC(=O)O)c(O)c2c1 [Example 39, {[4-Hydroxy-6-(2-methoxy-phenyl)-2-oxo-2H-thiochromene-3-carbonyl]-amino}-acetic acid]
  inhibition at 67 µM: 94.7%
